According to patent US4684645A, “Benzofused lactams as cholecystokinin antagonists” (Merck & Co., Inc., priority 1985, dated 1987):

Experiments:
CCK receptor (pancreas) = test: CCK Receptor Binding (Pancreas), 125I-CCK-33; parameters: species or system rat (male Sprague-Dawley); conditions: added as protease inhibitors; binding assay buffer
Method: (§1) CCK-33 was radiolabeled with ^125 I-Bolton Hunter reagent (2000 Ci/mmole) as described by Sankara et al. (J. Biol. Chem. 254: 9349-9351, 1979). Receptor binding was performed according to Innis and Snyder (Proc. Natl. Acad. Sci. 77: 6917-6921, 1980) with the minor modification of adding the additional protease inhibitors, phenylmethane sulfonyl fluoride and o-phenanthroline. The latter two compounds have no effect on the ^125 I-CCK receptor binding assay.
(§2) Male Sprague-Dawley rats (200-350 g) were sacrificed by decapitation. The whole pancreas was dissected free of fat tissue and was homogenized in 20 volumes of ice-cold 50 mM, Tris HCl (pH 7.7 at 25° C.) with a Brinkmann Polytron PT 10. The homogenates were centrifuged at 48,000 g for 10 min. Pellets were resuspended in Tris Buffer, centrifuged as above and resuspended n 200 volumes of binding assay buffer (50 mM Tris HCl, pH 7.7 at 25° C., 5 mM dithiothriethel, 0.1 mM bacitracin, 1.2 mM phenylmethane sulfonyl fluoride and 0.5 mM o-phenanthroline). […] The supernatant was aspirated and discarded, pellets were counted with a Beckman gamma 5000.

guinea pig ileum = test: CCK induced contraction, isolated longitudinal muscle of guinea pig ileum; parameters: species or system guinea pig (male Hartley); conditions: at 4.2 μM
Method: Longitudinal muscle strips with attached nerve plexus were prepared as described previously (Brit J. Pharmac. 23: 356-363, 1964; J. Physiol. 194: 13-33, 1969). Male Hartley guinea pigs were decapitated and the ileum was removed (10 cm of the terminal ileum was discarded and the adjacent 20 cm piece was used). A piece (10 cm) of the ileum was stretched on a glass pipette. Using a cotton applicator to stroke tangently away from the mesentery attachment at one end, the longitudinal muscle was separated from the underlying circular muscle. The longitudinal muscle was then tied to a thread and by gently pulling, stripped away from the entire muscle. A piece of approximately 2 cm was suspended in 5 ml organ bath containing Krebs solution and bubbled with 95% O2 and 5% CO2 at 37° C. under 0.5 g tension. CCK-8 was added cumulatively to the baths and EC50 values in the presence and absence of compounds of Formula I determined as described in the gall bladder protocol (above).

CCK receptor = test: 125I-CCK-33 receptor binding (pancreas or brain preparation not given); conditions: concentration dependent inhibition; tissue (rat pancreas or guinea pig brain) not stated; read-out: IC50, inhibition of specific 125I-CCK-33 binding
Method: The biological activity of the compounds of Formula I have been evaluated using an ^125 I-CCK receptor binding assay and in vitro isolated tissue preparations.
as §1
as §2, with “o-phenanthroline). For the binding assay, 25 μl of buffer (for total binding) or unlabeled CCK-8 sulfate to give a final concentration of lμM (for nonspecific binding) or the compounds of Formula I (for determination inhibition of ^125 I-CCK binding) and 25 μl of ^125 I-CCK-33 (30,000-40,000 cpm) were added to 450 μl of the membrane suspensions in microfuge tubes. All assays were run in duplicate or triplicate.” for “o-phenanthroline).”, “5000. […]” for “5000.”
Male Hartley guinea pigs (300-500 g) were sacrificed by decapitation and the brains were removed and placed in ice-cold 50 mM, Tris HCl plus 7.58 g/l Tritma-7.4 (pH 7.4 at 25° C.) Cerebral cortex was dissected and used as a receptor source. […] The supernatant was aspirated and discarded, pellets were counted with a Beckman gamma 5000.

guinea pig gall bladder = test: CCK induced contraction, isolated guinea pig gall bladder; parameters: species or system guinea pig (male Hartley); conditions: at 26 μM
Method: Male Hartley guinea pigs (400-600 g) were sacrificed by decapitation. The whole gall bladder was dissected free from adjacent tissues and cut into two equal halves. The gall bladder strips were suspended along the axis of bile duct in 5 ml organ bath under 1 g tension. The organ bath contained a Kreb's bicarbonate solution (NaCl 118 mM, KCl 4.75 mM, CaCl 2.54 mM, KH2 PO4 1.19 mM, Mg SO4 1.2 mM, NaHCO3 25 mM and dextrose 11 mM) maintained at 32° C. and bubbled with 95% O2 and 5% CO2. Isometric contractions were recorded using Statham (60 g; 0.12 mm) strain gauges and a Hewlett-Packard (77588) recorder. The tissues were washed every 10 minutes for 1 hr to obtain equilibrium prior to the beginning of the study. CCK-8 was added cumulatively to the baths and EC50 's determined using egression analysis. After washout (every 10 minutes for 1 hr), the compound of Formula I was added at least 5 minutes before the addition of CCK-8 and the EC50 of CCK-8 in the presence of the compound of Formula I similarly determined.

SMILES	effect on the 125I-CCK receptor binding assay (CCK receptor (pancreas))	IC50 (CCK receptor)	further results
c1cnc2c(c1)ccc1cccnc12 [o-phenanthroline]	no effect	–	–
CCOC(=O)C(CCc1c[nH]c2ccccc12)NC1CCc2ccccc2N(CC(=O)OC(C)(C)C)C1=O (stereo not drawn) [1-t-Butoxycarbonylmethyl-3-(1-carboethoxy-3-(3)indolyl-1-propyl)amino homodihydrocarbostyril]	–	400 nM	effect on maximal responses to CCK (guinea pig ileum): without affecting maximal responses; shift of CCK dose response to the right (guinea pig ileum): approximately 2.6 fold
COC(=O)CN1C(=O)C(NC(CCc2ccccc2)C(=O)OC)CCc2ccccc21 (racemic) [1-Carbomethoxymethyl-3-(1-carbomethoxy-3-phenyl-1-propyl)aminohomodihydrocarbostyril]	–	10000 nM	–
CCOC(=O)CN1C(=O)C(NC(CCc2ccccc2)C(=O)OCC)CCc2ccccc21 (racemic) [1-Carboethoxymethyl-3-(1-carboethoxy-3-phenyl-1-propyl)-amino homodihydrocarbostyril]	–	–	effect on maximal responses to CCK (guinea pig gall bladder): without reducing maximal responses; shift of CCK dose response (guinea pig gall bladder): about 10 times
O=S(=O)(F)Cc1ccccc1 [phenylmethane sulfonyl fluoride]	no effect	–	–
CCOC(=O)C(CCc1ccccc1)NC1CCc2ccccc2N(CC(=O)OC(C)(C)C)C1=O (stereo not drawn) [1-t-Butoxycarbonylmethyl-3-(1-carboethoxy-3-phenyl-1-propyl]-amino homodihydrocarbostyril]	–	2400 nM	–
